# pIC50: −log10 of the molar value.
# Target: T1, prostacyclin receptors (IP receptors) (Homo sapiens, UniProt P43119)
# T1 construct: Thrombocyte membranes are obtained by centrifuging 50 ml of human blood; tissue Maco Pharma, Langen (buffy coats); host or cells: human thrombocyte (platelet) membranes from blood buffy coats
# Test: Binding to prostacyclin receptors (IP receptors) of human thrombocyte membranes
# Conditions: displacement of 3 nM 3H-Iloprost, 60 min, room temperature
# Description: Thrombocyte membranes are obtained by centrifuging 50 ml of human blood (Buffy coats with CDP Stabilizer, from Maco Pharma, Langen) for 20 min at 160×g. Remove the supernatant (platelet-rich plasma, PRP) and then centrifuge again at 2000×g for 10 min at room temperature. Resuspend the sediment in 50 mM tris(hydroxymethyl)amino-methane, which has been adjusted to a pH of 7.4 with 1 N hydrochloric acid, and store at −20° C. overnight. On the next day, centrifuge the suspension at 80 000×g and 4° C. for 30 min. Discard the supernatant. Resuspend the sediment in 50 mM tris(hydroxy-methyl)aminomethane/hydrochloric acid, 0.25 mM ethylene diamine tetraacetic acid (EDTA), pH 7.4, and then centrifuge once again at 80 000×g and 4° C. for 30 min. Take up the membrane sediment in binding buffer (50 mM tris(hydroxymethyl)-aminomethane/hydrochloric acid, 5 mM magnesium chloride, pH 7.4) and store at −70° C. until the binding test.
# For the binding test, incubate 3 nM ^3H-Iloprost (592 GBq/mmol, from AmershamBioscience) for 60 min with 300-1000 μg/ml of human thrombocyte membranes per charge (max. 0.2 ml) in the presence of the test substances at room temperature. After stopping, add cold binding buffer to the membranes and wash with 0.1% bovine serum albumin. After adding Ultima Gold Scintillator, quantify the radioactivity bound to the membranes using a scintillation counter. The nonspecific binding is defined as radioactivity in the presence of 1 μM Iloprost (from Cayman Chemical, Ann Arbor) and is as a rule <25% of the bound total radioactivity. The binding data (IC50 values) are determined using the program GraphPad Prism Version 3.02.
# T1 sequence (P43119 whole entry): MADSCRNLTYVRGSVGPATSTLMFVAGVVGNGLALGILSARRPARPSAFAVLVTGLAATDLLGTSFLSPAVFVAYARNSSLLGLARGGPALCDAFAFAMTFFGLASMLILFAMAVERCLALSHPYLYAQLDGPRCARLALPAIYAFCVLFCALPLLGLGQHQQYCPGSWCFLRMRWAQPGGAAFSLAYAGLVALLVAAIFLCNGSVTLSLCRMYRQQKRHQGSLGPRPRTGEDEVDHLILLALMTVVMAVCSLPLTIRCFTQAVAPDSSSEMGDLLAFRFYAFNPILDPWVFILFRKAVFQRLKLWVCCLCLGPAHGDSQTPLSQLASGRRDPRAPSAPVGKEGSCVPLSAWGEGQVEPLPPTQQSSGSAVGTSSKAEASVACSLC
row,Structure (SMILES),pIC50
1,CCc1ccc(-c2c(-c3ccccn3)oc3ncnc(OC[C@H](C)OCCC(=O)O)c23)cc1 [Example 51],6.71
2,COc1ccc(-c2c(-c3ccccn3)oc3ncnc(O[C@H](C)CCCCC(=O)O)c23)cc1 [Example 21],7.28
3,CCc1ccc(-c2c(-c3ccccc3)oc3ncnc(OC[C@H](C)COCC(=O)O)c23)nc1 [Example 46],7.20
4,COc1ccc(-c2c(C3=CCCCC3)oc3ncnc(O[C@H](C)CCCCC(=O)O)c23)cc1 [Example 24],7.14
5,CCc1ccc(-c2c(-c3ccccc3)oc3ncnc(NCCCCCC(=O)O)c23)nc1 [Example 18],6.90
6,"COc1ccc(-c2c(-c3cccs3)oc3ncnc(NCCCCCC(=O)O)c23)cc1 [Example 32, 6-{[5-(4-Methoxyphenyl)-6-(2-thienyl)furo[2,3-d]pyrimidin-4-yl]amino}hexanoic acid]",6.87
7,CCc1ccc(-c2c(-c3ccccn3)oc3ncnc(O[C@H](C)CCCCC(=O)O)c23)cc1 [Example 49],7.72
8,CCOC(=O)COC[C@@H](C)COc1ncnc2oc(-c3ccccn3)c(-c3ccc(OC)cc3)c12 [Example 37],7.25
9,"CC1CC=C(c2c(-c3ccccc3)oc3ncnc(O[C@H](C)CCCCC(=O)O)c23)CC1 (stereo partly drawn) [Example 26, (6R)-6-{[5-(4-Methylcyclohex-1-en-1-yl)-6-phenylfuro[2,3-d]pyrimidin-4-yl]oxy}heptanoic acid]",5.73
10,"C=Cc1ccc(-c2c(-c3ccccc3)oc3ncnc(NCCCCCC(=O)OC)c23)nc1 [Example 3, Methyl 6-{[6-phenyl-5-(5-vinylpyridin-2-yl)furo[2,3-d]pyrimidin-4-yl]amino}hexanoate]",6.98
11,COc1ccc(-c2c(-c3ncccc3F)oc3ncnc(O[C@H](C)CCCCC(=O)O)c23)cc1 [Example 48],6.92
